# T1: w.t. CD27 extracellular domain fragment (Homo sapiens, UniProt P26842)
# T1 construct: made in house; culture supernatant used
# T1 sequence (P26842 21-130): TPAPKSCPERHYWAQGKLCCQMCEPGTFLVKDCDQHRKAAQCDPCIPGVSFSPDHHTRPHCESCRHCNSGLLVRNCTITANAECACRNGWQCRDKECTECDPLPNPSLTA
# T2: human CD70-Fc binding to CD27 on CD4+CD25+ Treg cells (Homo sapiens, UniProt P26842)
# T2 construct: from tissue; host or cells: splenocytes from hCD27+/+ mCD27-/- transgenic mice
# T2 sequence (P26842 20-260): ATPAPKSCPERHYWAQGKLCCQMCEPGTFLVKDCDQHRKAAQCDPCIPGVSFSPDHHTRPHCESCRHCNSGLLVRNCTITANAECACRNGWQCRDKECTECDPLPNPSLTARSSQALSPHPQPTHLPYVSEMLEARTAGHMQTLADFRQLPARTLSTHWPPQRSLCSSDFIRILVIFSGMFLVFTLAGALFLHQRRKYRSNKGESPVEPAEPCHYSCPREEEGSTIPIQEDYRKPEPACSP
# T3: mouse CD27 on splenocytes (gated CD4+CD25+ Treg cells) of w.t. mice (mouse, UniProt P41272 24-250)
# T3 construct: whole, on cells; also called mCD27
# T3 sequence (looked up): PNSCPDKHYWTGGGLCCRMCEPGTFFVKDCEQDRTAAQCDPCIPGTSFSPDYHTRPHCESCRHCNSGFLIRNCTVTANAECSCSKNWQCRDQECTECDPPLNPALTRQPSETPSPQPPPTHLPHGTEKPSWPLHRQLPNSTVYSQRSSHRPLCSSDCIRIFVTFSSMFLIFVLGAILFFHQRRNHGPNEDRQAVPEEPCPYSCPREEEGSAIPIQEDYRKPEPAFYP
# T4: CD27 extracellular domain fragment, amino acid residues 1-110, R87A mutation sequence, fused with a human … (human, UniProt P26842 21-130)
# T4 construct: Used as culture supernatant of transient transfection; also called CD27R87A; mutant CD27 fragment; not shown: human kappa chain at the N-terminus; flag-tag at the C-terminus
# T4 chain: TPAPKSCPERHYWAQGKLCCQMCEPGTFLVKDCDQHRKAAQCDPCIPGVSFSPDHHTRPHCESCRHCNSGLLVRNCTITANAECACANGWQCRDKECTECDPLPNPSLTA
# Experiments:
# E.G7 cells = assay: E.G7 tumor model with OT-I T-cell adoptive therapy; type: in vivo, mice
# [1] = test system: CD8, CD4 T-cells and Treg (CD4+Foxp3+); assay: T-cell depletion in spleen and pLNs of human CD27 transgenic mice (flow cytometry); type: in vivo
# Text: Spleens and pLNs were collected 7 days later and processed for flow cytometry analysis.
# The same preparations of splenocytes and pLNs cells as in Example 1 were stained for CD8, CD4 and Foxp3.
# donor origin CD8 T-cells = assay: In vivo expansion of adoptively transferred donor T-cells in pretreated recipient mice; conditions: for donor CD8 T-cell expansion: 14 days post transfusion
# WBC subpopulations = assay: Total and differential WBC counts and Treg recovery after conditioning treatment; type: in vivo, mice
# recipient CD3 T-cells = assay: Recipient T-cell depletion after CD27 Ab pretreatment (flow cytometry); type: in vivo, mice; conditions: for recipient CD3 T-cell counts on day 0: compared to isotype control
# Protocol: Spleens and pLNs were collected from one set of mice on day 0 without cell transfusion and from another set of mice 14 days post intravenous (i.v.) transfusion with 2×10^6 CFSE-labeled w.t. CD8 T-cells for the assessment of recipient cell depletion (FIG. 4A) and donor cell expansion (FIG. 4B). Percentages of recipient CD3 T-cells (CD45.1^+CD45.2^−CD3^+) and donor origin CD8 T-cells (CD45.1^−CD45.2^+CD3^+CD8^+) out of total live cells in spleens and pLNs were determined by flow cytometry and the absolute numbers of donor origin cells were calculated based on total cell counts of spleens and pLNs.
# These mice were bled and then transfused with 2×10^6 CD8 T-cells on day 0. Shown are the percentages of donor origin cells out of total live cells in the spleen and pLNs after 14 days of in vivo expansion (FIG. 10A) and the percentages of CD3 T cells in recipients' blood on day 0 before transfusion (FIG. 10B). Data are from one representative experiment of two performed, n=5 mice per group, *p<0.05, **p<0.01, ***p<0.001 indicating statistical significance compared to isotype control or between groups as specified by the horizontal line.
# (§1) CD8 T cells on day 0. Spleens and pLNs were collected on day 14 and processed for flow cytometry analysis. […] CD8, CD4 and Treg cell counts per μl blood were depicted in FIG. 11C (n=6 mice per group).
# [2] = molecular target: T1, w.t. CD27 extracellular domain fragment; assay: ELISA binding to w.t. CD27 fragment; conditions: serially diluted supernatants
# Text: CD27 extracellular domain spanning amino acid residue 1-110 w.t. sequence and R87A mutation sequence according to Kabat numbering were cloned into an expression vector fused with a human kappa chain in the N-terminus and a flag-tag in the C-terminus. The CD27 fragments were expressed by transient transfection and quantified by an ELISA measuring concentration of human kappa chain in the culture supernatant.
# CD8 T cells = assay: Ki-67 proliferation of donor and recipient CD8 T cells after varlilumab; type: in vivo, mice; conditions: spleen, varlilumab pretreatment
# Text: as §1
# Percentage of ki-67^+ in gated donor origin or recipient origin CD8 T cells in the spleen of the same mice as in FIGS. 11A and 11B were depicted in FIG. 12A. Percentages of Ki-67^+ cells in gated CD8 T cells in the spleen and pLNs of the same mice as in FIG. 11C were depicted in FIG. 12B.
# [3] = molecular target: T2, human CD70-Fc binding to CD27 on CD4+CD25+ Treg cells; assay: hCD70-Fc staining on hCD27+/+mCD27-/- splenocytes preincubated with Ab (ligand blocking); conditions: 10 μg Ab 30 minutes on ice, vs hIgG1 isotype control
# Protocol: Splenocytes from hCD27^+/+mCD27^−/− mice were incubated with 10 μg Ab as indicated for 30 minutes on ice and then stained with a fluorescently labeled human CD70-Fc fusion protein (0.5 μg) and Abs for cell surface markers. Shown is a histogram of hCD70-Fc staining on gated CD4^+CD25^+ Treg cells.
# [4] = molecular target: T3, mouse CD27 on splenocytes (gated …); assay: flow cytometry, labeled mCD70-Fc (0.5 ug) on gated CD4+CD25+ Treg cells of w.t. mouse splenocytes
# Text: FMO stands for fluorescence minus one, reflecting background fluorescence on the same gated cells.
# [5] = molecular target: T4, CD27 extracellular domain fragment, …; assay: ELISA, CD27 fragment captured by anti-flag Ab
# [6] = test system: SIINFEKL-specific IFNγ spots; assay: OVA immunisation ELISPOT (co-stimulatory/agonistic activity); type: in vivo; conditions: 5 mg OVA and 50 μg Ab on day 0, spleens 7 days later, hCD27+/-mCD27wt mice
# Text: (§2) Shown are […]-specific IFNγ spots number per spleen, n=4 or 5 mice per group (FIG. 9C). Data are from one representative experiment of two performed, *p<0.05, ***p<0.001, ****p<0.0001, indicating statistical significance compared to isotype control or between groups as specified by the horizontal line.
# as §2, with “Spleens were collected 7 days later for ELISPOT analysis. Shown” for “Shown”, “n=5” for “n=4 or 5”, “10C).” for “9C).”, “**p<0.01,” for “***p<0.001, ****p<0.0001,”
molecule,measurement,setting,value
SIINFEKL (Ovalbumin peptide; listed as Gallus gallus) [reference compound],long-term survival with or without SIINFEKL peptide injection following OT-I T cell transfer,E.G7 cells; 100 μg i.p. day 8 or 20 μg day 17,no difference in long-term survival
varlilumab: fully human monoclonal IgG1 antibody binding CD27; heavy/light chains SEQ ID NO: 68 and 69,percentage and absolute numbers of Treg in peripheral lymph organs,"[1]; 0.2 mg i.p., 7 days, spleen and pLNs, vs isotype control",reduced
same,"total T-cells (CD8 and CD4), percentage out of total live cells and absolute numbers","[1]; 0.2 mg i.p., spleens and pLNs 7 days later, hCD27+/-mCD27wt mice, vs isotype control",reduced
same,pattern of T-cell deletion among T-cell subsets,[1]; Examples 1 and 2 together,"preferentially on Treg and secondarily on CD4-Th, while the least reduction is on CD8 T-cells"
same,"percentage of donor-origin CD8 T-cells out of total live cells, time course","donor origin CD8 T-cells; 200 μg day -7 and -2, spleens and pLNs day 7, 14 and 21, vs hIgG1",long-lasting accumulation of donor-origin CD8 T-cells
same,transferred cell expansion in recipients lacking CD27 signaling,"donor origin CD8 T-cells; 200 μg days -7 and -2, hCD27+/+mCD27-/- recipients, day 14",remarkable transferred cell expansion
same,expansion of transfused CD8 T-cells compared to 2C2 or varlimut,"donor origin CD8 T-cells; 300 μg days -14 and -2, hCD27+/+mCD27-/- mice, 14 days",greater expansion of transfused CD8 T-cells
same,donor CD8 T-cell expansion,donor origin CD8 T-cells; 300 μg i.p. on day -2 only,minimal expansion
same,donor CD8 T-cell expansion,"donor origin CD8 T-cells; 300 μg i.p. on day -14 and -2, hCD27+/+mCD27-/- mice",greatest expansion
same,donor CD8 T-cell expansion,donor origin CD8 T-cells; 300 μg i.p. on day -14 only,median level of expansion
same,"donor cell expansion (donor origin CD8 T-cells in blood, spleen and pLNs)","donor origin CD8 T-cells; Example 14 regimens, day 14, Cy and Flu vs control mice, varlilumab vs Cy and Flu",further increased
same,CFSE dilution in donor-origin CD8 T-cells,"donor origin CD8 T-cells; pretreatment day -14 and -2, vs hIgG1",enhanced proliferation
same,"percentage of Treg cells out of total live cells in blood, spleen and pLNs on day 14",WBC subpopulations; 14 days post cell transfer,remains low
same,total and differential counts of WBC per μl blood on day of adoptive transfer (day 0),"WBC subpopulations; varlilumab 300 μg day -14 and -2, Cy 1 mg and Flu 0.1 mg day -4, -3, -2, hCD27+/+mCD27-/- mice","only depletes T-cells with the most reduction in Treg population and does not attack myeloid cells, B-cells and NK cells"
same,"T cell reduction in the two strains of recipients (CD8, CD4 and Treg counts per μl blood)","recipient CD3 T-cells; 300 μg day 0, blood 14 days later, hCD27+/+mCD27-/- vs hCD27+/+mCD27wt",same extent of T cell reduction
same,recipient CD3 T-cell counts on day 0,recipient CD3 T-cells; 1 dose on day -14,reduced to the same extent
same,recipient CD3 T-cell counts on day 0,recipient CD3 T-cells; 2 doses on day -14 and -2,reduced to the same extent
same,recipient CD3 T-cell counts on day 0,recipient CD3 T-cells; Ab on day -2 only,no significant reduction
same,recipient CD3 T-cell counts by day 14 compared to day 0,recipient CD3 T-cells; Ab on day -14 only,remained the same
same,recipient CD3 T-cell counts by day 14 compared to day 0,recipient CD3 T-cells; varlilumab on day -2 only,further decreased
same,recipient CD3 T-cell counts by day 14 compared to day 0,recipient CD3 T-cells; varlilumab on day -14 and -2,further decreased
same,conditioning effect of one delayed dose alone,"E.G7 cells; 300 μg day 14 only, OT-I day 16, survival",no conditioning effect by itself
same,antitumor efficacy of varlilumab pretreatment followed by OT-I T-cell transfer,"E.G7 cells; 300 μg day -2 and 5, OT-I day 7, tumor growth and survival",stronger antitumor efficacy than varlilumab alone
same,antitumor efficacy of OT-I T-cells compared to hIgG1 isotype control,"E.G7 cells; delayed therapy: 300 μg day 6 and 14, OT-I day 16",enhances antitumor efficacy of OT-I T-cells
same,OT-I T-cells antitumor activity compared to hIgG1 control,"E.G7 cells; varlilumab 300 μg day 7 and 14, or Cy 1 mg and Flu 0.1 mg day 13 and 14, OT-I day 16",facilitates OT-I T-cells antitumor activity
same,effect of one delayed dose combined with Cy and Flu on OT-I T-cells antitumor activity,"E.G7 cells; varlilumab 300 μg day 14 plus Cy 1 mg and Flu 0.1 mg day 13 and 14, survival",synergizes
same,binding to w.t. CD27 fragment (OD450),[2],recognizes w.t. CD27
same,CD8 T-cell proliferation (Ki-67+) donor origin vs recipient origin cells,CD8 T cells; hCD27+/+mCD27-/- mice,significantly higher in donor origin cells
same,CD8 T-cell proliferation (Ki-67+) donor origin vs recipient origin cells,CD8 T cells; hCD27+/+mCD27wt mice,no difference
same,hCD70-Fc staining on gated CD4+CD25+ Treg cells (ligand blocking),[3],no hCD70 binding detected
"mouse CD70-Fc fusion protein (Fc fusion, UniProt O55237 45-195, looked up, Fluorescence-labeled; also called mCD70-Fc; not shown: Fc part) SKQQQRLLEHPEPHTAELQLNLTVPRKDPTLRWGAGPALGRSFTHGPELEEGHLRIHQDGLYRLHIQVTLANCSSPGSTLQHRATLAVGICSPAAHGISLLRGRFGQDCTVALQRLTYLVHGDVLCTNLTLPLLPSRNADETFFGVQWICP",binding result,[4],binds
"varlilumab (antibody, human IgG1, kappa, V domains shown, Fully human monoclonal anti-human CD27 antibody; also called 1F5; CDX-1127) VH: QVQLVESGGGVVQPGRSLRLSCAASGFTFSSYDMHWVRQAPGKGLEWVAVIWYDGSNKYYADSVKGRFTISRDNSKNTLYLQMNSLRAEDTAVYYCARGSGNWGFFDYWGQGTLVTVSS VL: DIQMTQSPSSLSASVGDRVTITCRASQGISRWLAWYQQKPEKAPKSLIYAASSLQSGVPSRFSGSGSGTDFTLTISSLQPEDFATYYCQQYNTYPRTFGQGTKVEIKR",binding result,[5],no binding
"varlimut: a FCD265A mutated mouse IgG1 isotype of varlilumab (antibody, V domains shown) VH: QVQLVESGGGVVQPGRSLRLSCAASGFTFSSYDMHWVRQAPGKGLEWVAVIWYDGSNKYYADSVKGRFTISRDNSKNTLYLQMNSLRAEDTAVYYCARGSGNWGFFDYWGQGTLVTVSS VL: DIQMTQSPSSLSASVGDRVTITCRASQGISRWLAWYQQKPEKAPKSLIYAASSLQSGVPSRFSGSGSGTDFTLTISSLQPEDFATYYCQQYNTYPRTFGQGTKVEIK",co-stimulatory / agonistic activity (SIINFEKL-specific IFNγ spots number per spleen),[6],no depleting and agonistic activities
same,depleting activity (percentages of CD3 T cells in recipients' blood on day 0),"recipient CD3 T-cells; 300 μg days -14 and -2, hCD27+/+mCD27-/- mice",no depleting and agonistic activities
same,hCD70-Fc staining on gated CD4+CD25+ Treg cells (ligand blocking),[3],blocks ligand binding
